From patent US20240041976A1, “COMPOSITION AND USE” (priority 2020, published 2024) come the findings set out here.

One test relates to MRSA 43484. The experiment in a line: AAMP assay and checkerboard synergy. The following applies: MRSA 43484; for MIC: Staphylococcus aureus, 24 h, read-out: MIC, single antimicrobial. Format: cell-based, Staphylococcus aureus. The protocol:
(§1) Antimicrobial activity was measured using the AAMP assay (Wiegand et al., 2008, Nat. Protoc., Vol. 3(2), p 163-175).
(§2) Synergy testing was done with a microtiter plate checkerboard assay as previously described (Orhan et al., 2005, J. Clin. Microbiol., Vol. 43(1), p 140-143). Briefly, equal amounts of antimicrobial A were applied on microtiter plate 1 in wells A1-H1 and then diluted two-fold to wells 2-12. Similarly, equal amounts of antimicrobial B were applied on microtiter plate 2 in wells A1-A12 and diluted two-fold in wells B-H. Volumes of 50 μl of antimicrobial A from each well of microtiter plate 1 were transferred into microtiter plate 3, except for wells H1-H12. Similarly, the same volumes were transferred from microtiter plate 2 into plate 3, except for wells A1-A8. A 100 μl volume of 25 times diluted ON bacterial culture of MRSA was transferred into each well of plate 3. A 50 μl volume of pure broth was added into each well in lines H1-H12 and A1-A8 which were used to estimate MIC values of pure substances (blank).
(§3) Three-component synergy was assessed by mixing the three components (100 μg of PenG, 50 μg of GarKS and 2.5 μg of MP1) into one well of a microtiter plate, compared with activity of individual antimicrobials on the same plate. The fractional inhibition concentration (FIC) which was used to define synergy was calculated as set forth in Example 1.

For a further test, the system named is MRSA ATCC 33591-lux. The experiment in a line: AAMP assay and checkerboard synergy. Format: cell-based, Staphylococcus aureus. The following applies: MRSA ATCC 33591-lux. The protocol: as §1, §2, §3
A further test has as its system MRSA USA-300. The experiment in a line: AAMP assay and checkerboard synergy. Format: cell-based, Staphylococcus aureus. The following applies: MRSA USA-300; for MIC: Staphylococcus aureus, 24 h, read-out: MIC, single antimicrobial. Here is the method: as §1, §2, §3
Another test concerns MRSA. As to the kind of experiment: MIC of the mixture dissolved in 5% HPC. Format: cell-based, Staphylococcus aureus. The following applies: for MIC: Staphylococcus aureus, MRSA, read-out: final MIC of the component in the mixture in HPC. The protocol: as §1
We also tested hydroxypropyl cellulose (HPC) which is a more hydrophilic polymer and commonly used for topical and oral pharmaceutical preparations (Alvarez-Lorenzo et al., 1999, Int. J. Pharmaceutics, Vol. 180(1), p 91-103).

The next test relates to S. haemolyticus 4070. The experiment in a line: microbe, parasite or virus in culture.
The mark [1] stands for this setting: 4070, 24 h, K1-EJ + GarKS + MP1.
Setting [2] is: 4070, 48 h, K1-EJ + GarKS + MP1.

No end group written: not given here.

With `C/C=C(\NC(=O)c1csc(-c2csc(-c3ccc4c(n3)-c3csc(n3)[C@H]([C@@H](C)O)NC(=O)c3csc(n3)[C@H](C(C)C)NC(=O)c3csc(n3)/C(=C/C)NC(=O)[C@H]([C@@H](C)O)NC(=O)c3csc-4n3)n2)n1)C(=O)NC[C@@H](C)O` [MP1, micrococcin P1], the “MIC of the antimicrobial in comb. with GarKS” value (“MIC of the antimicrobial” below) with MRSA 43484, with MRSA ATCC 33591-lux and in the test with MRSA USA-300 was 0.16 µg/mL throughout. Also, the MIC in the test on MRSA 43484 was found to be 2.5 µg/mL; in the test on MRSA USA-300, 2.5 µg/mL; in the test with MRSA, 0.04 µg/mL; in the test on S. haemolyticus 4070 (Staphylococcus haemolyticus, 4070, 5 h), 0.02 µg/mL; with S. haemolyticus 4070 (Staphylococcus haemolyticus, 4070, 24 h), 0.33 µg/mL; with S. haemolyticus 4070 (Staphylococcus haemolyticus, 4070, 48 h), 0.13 µg/mL. The “MIC of the component in combination” value in the test with S. haemolyticus 4070 (4070, 5 h, GarKS + MP1) amounted to 0.02 µg/mL; in the test on S. haemolyticus 4070 (4070, 5 h, K1-EJ + GarKS + MP1) it was 0.032 µg/mL; in the test on S. haemolyticus 4070 (4070, 5 h, K1-EJ + MP1), 0.02 µg/mL; in the test with S. haemolyticus 4070 (4070, 24 h, GarKS + MP1), 0.33 µg/mL; with S. haemolyticus 4070 (setting [1]) it was 0.28 µg/mL; in the test on S. haemolyticus 4070 (4070, 24 h, K1-EJ + MP1), 0.28 µg/mL. The “MIC of the component in combination” value is 0.63 µg/mL in the test on S. haemolyticus 4070 (4070, 48 h, GarKS + MP1); 0.58 µg/mL with S. haemolyticus 4070 (setting [2]); 0.6 µg/mL with S. haemolyticus 4070 (4070, 48 h, K1-EJ + MP1).

As to `CC1(C)S[C@@H]2[C@H](NC(=O)Cc3ccccc3)C(=O)N2[C@H]1C(=O)O` [Penicillin G], in the test on MRSA 43484, the “MIC of GarKS in comb. antibiotic/GarKS/MP1” value worked out at 4 µg/mL; the “MIC of MP1 in comb. antibiotic/GarKS/MP1” value worked out at 0.08 µg/mL; the “MIC of MP1 in comb. with the labelled antibiotic” value came out at 0.3 µg/mL; the “MIC of the antibiotic in comb. with GarKS and MP1” value (shortened to “MIC … with GarKS and MP1”) worked out at 8 µg/mL. Besides, in the test on MRSA 43484, the “MIC of the antibiotic in comb. with MP1” value is 32 µg/mL, the “MIC of the antimicrobial” value is 16 µg/mL and the MIC was below 2500 µg/mL. Besides, in the test with MRSA ATCC 33591-lux, the “MIC of GarKS in comb. antibiotic/GarKS/MP1” value stood at 4 µg/mL; the “MIC of MP1 in comb. antibiotic/GarKS/MP1” value came out at 0.08 µg/mL; the “MIC of MP1 in comb. with the labelled antibiotic” value turned out to be 0.16 µg/mL; the “MIC … with GarKS and MP1” value amounted to 8 µg/mL. For the same molecule, in the test with MRSA ATCC 33591-lux, the “MIC of the antibiotic in comb. with MP1” value was determined as 16 µg/mL and the “MIC of the antimicrobial” value was determined as 16 µg/mL. The MIC with MRSA ATCC 33591-lux (Staphylococcus aureus, 24 h, read-out: MIC, single antimicrobial) is below 2500 µg/mL. Also, in the test with MRSA USA-300, the “MIC of GarKS in comb. antibiotic/GarKS/MP1” value amounted to 4 µg/mL; the “MIC of MP1 in comb. antibiotic/GarKS/MP1” value amounted to 0.08 µg/mL; the “MIC of MP1 in comb. with the labelled antibiotic” value was 0.3 µg/mL; the “MIC … with GarKS and MP1” value was determined as 8 µg/mL. Also, in the test with MRSA USA-300, the “MIC of the antibiotic in comb. with MP1” value was 32 µg/mL, the “MIC of the antimicrobial” value worked out at 16 µg/mL and the MIC is below 2500 µg/mL. For the same molecule, the MIC with MRSA was 2 µg/mL.

Turning to “MKFKFNPTGTIVKKLTQYEINWYKQQYGRYPWERPVA [Hybrid K1-EJ]”, the MIC is 0.78 µg/mL with S. haemolyticus 4070 (4070, 5 h); above 100 µg/mL in the test on S. haemolyticus 4070 (4070, 24 h); above 100 µg/mL in the test on S. haemolyticus 4070 (4070, 48 h). The “MIC of the component in combination” value with S. haemolyticus 4070 (4070, 5 h, K1-EJ + GarKS) was determined as 0.72 µg/mL; in the test with S. haemolyticus 4070 (4070, 5 h, K1-EJ + GarKS + MP1) it was 0.32 µg/mL; with S. haemolyticus 4070 (4070, 5 h, K1-EJ + MP1), 0.2 µg/mL; in the test on S. haemolyticus 4070 (4070, 24 h, K1-EJ + GarKS), 3.3 µg/mL; in the test on S. haemolyticus 4070 (setting [1]), 2.8 µg/mL; in the test on S. haemolyticus 4070 (4070, 24 h, K1-EJ + MP1), 2.8 µg/mL. Also, the “MIC of the component in combination” value came to 6.3 µg/mL with S. haemolyticus 4070 (4070, 48 h, K1-EJ + GarKS); 5.8 µg/mL with S. haemolyticus 4070 (setting [2]); 6 µg/mL with S. haemolyticus 4070 (4070, 48 h, K1-EJ + MP1).

B1: Garvicin KS: three-peptide leaderless bacteriocin (GarA, GarB, GarC; SEQ ID NO:6-8), peptides synthesized (peptide, listed as Lactococcus garvieae)
chain 1: MGAIIKAGAKIVGKGVLGGGASWLGWNVGEKIWK
chain 2: MGAIIKAGAKIIGKGLLGGAAGGATYGGLKKIFG
chain 3: MGAIIKAGAKIVGKGALTGGGVWLAEKLFGGK
As for B1, the “MIC, single antimicrobial” value in the test with MRSA 43484, in the test on MRSA ATCC 33591-lux and with MRSA USA-300 was 32 µg/mL in each case. The “final MIC of the component in the mixture in HPC” value with MRSA stood at 2 µg/mL. Besides, the “MIC of the component in combination” value in the test with S. haemolyticus 4070 (4070, 5 h, GarKS + MP1) is 0.2 µg/mL; in the test with S. haemolyticus 4070 (4070, 5 h, K1-EJ + GarKS), 0.72 µg/mL; in the test on S. haemolyticus 4070 (4070, 5 h, K1-EJ + GarKS + MP1), 0.32 µg/mL; in the test with S. haemolyticus 4070 (4070, 24 h, GarKS + MP1), 3.3 µg/mL; in the test on S. haemolyticus 4070 (4070, 24 h, K1-EJ + GarKS), 3.3 µg/mL; in the test with S. haemolyticus 4070 (setting [1]), 2.8 µg/mL. The “MIC of the component in combination” value with S. haemolyticus 4070 (4070, 48 h, GarKS + MP1) was 6.3 µg/mL; in the test on S. haemolyticus 4070 (4070, 48 h, K1-EJ + GarKS), 6.3 µg/mL; in the test with S. haemolyticus 4070 (setting [2]) it was 5.8 µg/mL. For the same molecule, the MIC in the test on S. haemolyticus 4070 (4070, 5 h, individual component) is 12 µg/mL; in the test with S. haemolyticus 4070 (4070, 24 h, individual component), 48 µg/mL; with S. haemolyticus 4070 (4070, 48 h, individual component), 51 µg/mL.
